{"source": "patent US8557233B2", "about": "“Probiotic bifidobacterium strains” (Alimentary Heath Limited, priority 2007, dated 2013)", "test_system": "B. longum AH1206", "test": "Minimum inhibitory concentration (MIC) of antibiotics", "format": "cell-based, Bifidobacterium longum", "settings": "against B. longum AH1206", "description": "Antibiotic sensitivity profiles of the B. longum strain was determined using the ‘disc susceptibility’ assay. Cultures were grown up in the appropriate broth medium for 24-48 h spread-plated (100 μl) onto agar media and discs containing known concentrations of the antibiotics were placed onto the agar. Strains were examined for antibiotic sensitivity after 1-2 days incubation at 37° C. under anaerobic conditions. Strains were considered sensitive if zones of inhibition of 1 mm or greater were seen. The minimum inhibitory concentration (MIC) for each antibiotic was independently assessed.", "data": [{"smiles": "CCC[C@@H]1C[C@@H](C(=O)N[C@@H]([C@H]2O[C@H](SC)[C@H](O)[C@@H](O)[C@H]2O)[C@H](C)Cl)N(C)C1", "note": "[clindamycin]", "values": [{"measurement": "minimum inhibitory concentration (MIC)", "result": 0.32}]}, {"smiles": "Cc1ncc([N+](=O)[O-])n1CCO", "note": "[metronidazole]", "values": [{"measurement": "minimum inhibitory concentration (MIC)", "result": 0.38}]}, {"smiles": "CN[C@H](CC(C)C)C(=O)N[C@H]1C(=O)N[C@@H](CC(N)=O)C(=O)N[C@H]2C(=O)N[C@H]3C(=O)N[C@H](C(=O)N[C@H](C(=O)O)c4cc(O)cc(O)c4-c4cc3ccc4O)[C@H](O)c3ccc(c(Cl)c3)Oc3cc2cc(c3O[C@@H]2O[C@H](CO)[C@@H](O)[C@H](O)[C@H]2O[C@H]2C[C@](C)(N)[C@H](O)[C@H](C)O2)Oc2ccc(cc2Cl)[C@H]1O", "note": "[vancomycin]", "values": [{"measurement": "minimum inhibitory concentration (MIC)", "result": 0.75}]}]}
